We go through ten molecules from PubChem BioAssay (NCI).

Some test systems named below: ACHN renal; EKVX NSCLC; MALME-3M melanoma; MDA-MB-231 breast; SF-295 CNS; SK-OV-3 ovarian; SR leukemia; T-47D breast; TK-10 renal; CCRF-CEM leukemia.
Holding throughout (test): NCI-60 cell line screen, 48 h

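A five-concentration, 48-hour dose response in 96-well plates underlies each endpoint, interpolated linearly between surrounding concentrations. The concentration for 50% growth inhibition is given as GI50. TGI: total growth inhibition.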 Where only a bound is given, the exact number is not on record here.

Take `Clc1ccc(CN2CCCN(Cc3ccc(Cl)cc3)C2c2cc3ccccc3c3ccccc23)cc1`: the TGI with ACHN renal was more than 100 µM; in the assay with EKVX NSCLC, more than 100 µM; in the assay on MALME-3M melanoma, 37.6 µM; in the assay on MDA-MB-231 breast, more than 100 µM; with SF-295 CNS, more than 100 µM; in the assay with SK-OV-3 ovarian it was more than 100 µM. For the same molecule, the TGI in the assay with SR leukemia, in the assay with T-47D breast and in the assay on TK-10 renal was more than 100 µM in each case.
As to `N#Cc1cc(S(=O)(=O)Nc2nc3cc(Cl)ccc3o2)c(SCc2ccccc2)cc1Cl`, the GI50 with ACHN renal was 13.9 µM; in the assay with CCRF-CEM leukemia, 14.1 µM; in the assay with MDA-MB-231 breast, 10.7 µM; in the assay on SF-295 CNS, 14.5 µM; with SR leukemia, 15.2 µM; in the assay on T-47D breast, 15.9 µM. Also, the GI50 in the assay with TK-10 renal is 14.8 µM. Moreover, the TGI came to 26.8 µM in the assay on ACHN renal; 27.1 µM in the assay on CCRF-CEM leukemia; 22.5 µM in the assay with MDA-MB-231 breast; 28 µM with SF-295 CNS; 28.5 µM in the assay on SR leukemia; 30.6 µM in the assay on T-47D breast. The same molecule yielded a TGI in the assay on TK-10 renal of 28 µM.
Take `CCOc1ccc2cc(-c3nn(CC4CCNCC4)c4ncnc(N)c34)ccc2c1`: the GI50 in the assay with ACHN renal was 15.1 µM; in the assay with CCRF-CEM leukemia it was 13.9 µM; with EKVX NSCLC, 22.5 µM; in the assay with MDA-MB-231 breast, 11.1 µM; in the assay with SF-295 CNS, 14.8 µM; with SK-OV-3 ovarian, 17.3 µM. Also, the values for the GI50 with SR leukemia, in the assay with T-47D breast and with TK-10 renal were 4.23 µM, 18.2 µM and 16.8 µM, respectively. The TGI in the assay on ACHN renal was 29.8 µM; in the assay with CCRF-CEM leukemia, 34.2 µM; in the assay with EKVX NSCLC it was more than 100 µM; in the assay on MDA-MB-231 breast, 25.5 µM; in the assay on SF-295 CNS it was 29.5 µM; with SK-OV-3 ovarian, 39.3 µM. In addition, the TGI stood at 19.6 µM in the assay on SR leukemia, 50.5 µM with T-47D breast and 38.8 µM in the assay on TK-10 renal.
As to `COc1cc(/C=C2\SC(N3CCCCC3)=NC2=O)ccc1OCCCCCCOc1ccc(/C=C2\SC(N3CCCCC3)=NC2=O)cc1OC`, the GI50 in the assay with ACHN renal was 15.1 µM; with EKVX NSCLC, 12 µM; in the assay with MALME-3M melanoma, 3.87 µM; in the assay with MDA-MB-231 breast it was 2.13 µM; with SF-295 CNS, 13.7 µM; in the assay with SK-OV-3 ovarian it was 4.91 µM. In addition, the GI50 is 9.16 µM in the assay with SR leukemia, 8.9 µM with T-47D breast and 11.5 µM in the assay on TK-10 renal. For the same molecule, the TGI came to 34.2 µM in the assay with ACHN renal; 76.6 µM with EKVX NSCLC; 30 µM with MALME-3M melanoma; 21 µM with MDA-MB-231 breast; 47.5 µM with SF-295 CNS; 17.4 µM in the assay with SK-OV-3 ovarian. The TGI in the assay on SR leukemia came out at 65.8 µM; with T-47D breast, 44.5 µM; in the assay on TK-10 renal, 27.9 µM.
`COc1ccccc1C(=O)N(Cc1ccccc1)c1ccc(Cl)c(C(=O)OC(C)C)c1`: the TGI was 96.8 µM with ACHN renal; more than 100 µM in the assay on CCRF-CEM leukemia; more than 87.8 µM with EKVX NSCLC; 85.9 µM in the assay with MALME-3M melanoma; more than 100 µM in the assay with MDA-MB-231 breast; more than 100 µM in the assay with SF-295 CNS. The TGI in the assay with SK-OV-3 ovarian was more than 91.7 µM; in the assay on T-47D breast, 78.7 µM; in the assay on TK-10 renal it was more than 100 µM.
For `OCCN(CO)CO`, the TGI in the assay on ACHN renal, with EKVX NSCLC, in the assay on MALME-3M melanoma, in the assay with MDA-MB-231 breast, with SF-295 CNS and with SK-OV-3 ovarian was more than 100 µM in each case. Also, the TGI in the assay with T-47D breast and in the assay with TK-10 renal was more than 100 µM in each case.
On to `COc1cc2c3c(n(CCCNCCCNCCCN)c(=O)c2cc1OC)-c1cc2c(cc1C3=O)OCO2`, for which the GI50 in the assay on ACHN renal is 91.6 µM; in the assay with CCRF-CEM leukemia, 35.1 µM; in the assay with EKVX NSCLC, more than 100 µM; with MDA-MB-231 breast, more than 100 µM; in the assay with SF-295 CNS, 40.6 µM; with SK-OV-3 ovarian, more than 100 µM. Also, the GI50 in the assay on SR leukemia was 13.6 µM; in the assay with T-47D breast, more than 100 µM; in the assay on TK-10 renal, more than 100 µM. The TGI with ACHN renal, with CCRF-CEM leukemia, in the assay on EKVX NSCLC, in the assay with MDA-MB-231 breast, with SF-295 CNS and in the assay with SK-OV-3 ovarian was more than 100 µM each time. Moreover, the TGI is 89 µM in the assay with SR leukemia, more than 100 µM in the assay with T-47D breast and more than 100 µM in the assay with TK-10 renal.
On to `Cc1ccc(C2CC(c3ccc(Nc4ccnc5cc(Cl)ccc45)cc3)=NN2C=O)cc1` (stereo unspecified), for which the GI50 was 3.27 µM in the assay with ACHN renal; 2.25 µM in the assay on CCRF-CEM leukemia; more than 100 µM in the assay on MALME-3M melanoma; 6.09 µM with MDA-MB-231 breast; 4 µM in the assay on SF-295 CNS; more than 100 µM in the assay on SK-OV-3 ovarian. Further, the results for the GI50 in the assay on SR leukemia, in the assay with T-47D breast and in the assay on TK-10 renal were 3.18 µM, 1.65 µM and more than 100 µM, respectively. The TGI in the assay with ACHN renal, with CCRF-CEM leukemia, in the assay on MALME-3M melanoma, with MDA-MB-231 breast, with SF-295 CNS and in the assay with SK-OV-3 ovarian was more than 100 µM in each case. Moreover, the TGI was 10.2 µM in the assay with SR leukemia, more than 100 µM in the assay on T-47D breast and more than 100 µM in the assay with TK-10 renal.
`CC(C)OP(=O)(O)c1ncc(-c2ccc(C(F)(F)F)cc2)c(NC2CCCCCC2)n1`: the GI50 with ACHN renal, in the assay with CCRF-CEM leukemia, in the assay on MALME-3M melanoma, with MDA-MB-231 breast, in the assay on SF-295 CNS and in the assay on SK-OV-3 ovarian was more than 100 µM in each case. Besides, the figures for the GI50 with T-47D breast and in the assay on TK-10 renal were 34.9 µM and more than 100 µM, respectively. The TGI in the assay with ACHN renal, with CCRF-CEM leukemia, in the assay with MALME-3M melanoma, in the assay with MDA-MB-231 breast, in the assay with SF-295 CNS and in the assay with SK-OV-3 ovarian was more than 100 µM in each case. The TGI with T-47D breast and in the assay on TK-10 renal was more than 100 µM in each case.
Consider `Cc1cc(NN=C(c2ccc(O)cc2)c2ccc(O)cc2)c([N+](=O)[O-])cc1[N+](=O)[O-]`, for which the GI50 in the assay on ACHN renal is 4.08 µM; in the assay on CCRF-CEM leukemia it was 3.33 µM; in the assay with EKVX NSCLC, 4.54 µM; in the assay with MALME-3M melanoma it was 9.31 µM; in the assay on MDA-MB-231 breast it was 4.7 µM; in the assay on SF-295 CNS, 4.91 µM. Moreover, the GI50 was 2.98 µM in the assay on SK-OV-3 ovarian, 5.55 µM in the assay with SR leukemia and 4.53 µM in the assay on TK-10 renal. Besides, the TGI was more than 100 µM in the assay on ACHN renal; 34 µM with CCRF-CEM leukemia; 26.6 µM with EKVX NSCLC; 23.2 µM in the assay on MALME-3M melanoma; 20.7 µM with MDA-MB-231 breast; 22.2 µM with SF-295 CNS. Further, the TGI with SK-OV-3 ovarian was 19.9 µM; in the assay with SR leukemia it was 50.2 µM; in the assay with TK-10 renal, 37.5 µM.
